{"source": "patent US20030091533A1", "about": "“Regulation of mononuclear phagocyte stimulation” (priority 2001, published 2003)", "key": {"LPS-stimulated PBM [1]": {"tested_on": "LPS-stimulated PBM", "assay": "Intracellular oxidative burst, DCFH oxidation assay, PBM", "type": "cell-based, human", "procedure": "Intracellular oxidative capacity was assessed essentially as described by Bass et al., J. Immunol., 130:1910-1917 (1983) (incorporated herein by reference) as described infra.\nCells (0.2×10^6) were preincubated for 24 hour with IL-9 or IL-4 (20 ng/ml) in the presence of IFN-γ (200 U/ml) before stimulation for 20 hour with LPS (1 μg/ml). The intracellular oxidative capacity was measured through the DCFH oxidation assay as describe herein. FIG. 3 depicts the effect of IFN-γ on the inhibition mediated by IL-9 and IL-4 on the oxidative burst in LPS-stimulated PBM (A) and AM (B).\nTable 1. Specific blockade of the IL-9 inhibitory effect on oxidative burst in LPS-15 stimulated PBM and AM by anti-hIL-9R mAb. Cells (0.2×10^6) were preincubated with neutralizing mAb against hIL-9R (AH9R7, 10 μg/ml), or with control mIgG2b (10 μg/ml), 1 hour before incubation with IL-9 (20 ng/ml) for 24 hour without removing mAb, and stimulated by LPS (1 μg/ml) for 20 h. Intracellular oxidative capacity was evaluated by the DCFH oxidation assay. Data are means±SEM obtained from three experiments, triplicate conditions being performed in each experiment. *P<0.001 compared with cells preincubated with IL-9 (with or without control mIgG2b).\nCells (0.2×10^6) were preincubated with neutralizing mAb, either against TGF-β1 (30 μg/ml) or against IL-10Rβ (30 μg/ml) or with control mIgG1 (30 μg/ml), 2 hour before incubation with IL-9 (20 ng/ml) for 24 hour without removing the mAb, and stimulated with LPS (1 μg/ml) for 20 h. Intracellular oxidative capacity was evaluated by the DCFH oxidation assay.\nIntracellular oxidative capacity was assessed as described by Bass et al., (Bass et al., J. Immunol. 130:1910-1917 (1983)). Briefly, the PBM and AM samples were distributed in 96-well plates with flat bottoms (Falcon) to provide 0.2×10^6cells/well. The cells were preincubated for 24 hour at 37° C., 5% CO2 with cytokines (200 u/ml for IFN-y, 20 ng/ml for IL-9 and 20 ng/ml; for IL-4) in cRPMI before being stimulated for 20 hours with LPS (1 μg/ml) without removing the cytokines. At the end of incubation with cytokines and/or LPS, cells were loaded for 15 min with 15 μM DCFH-DA in cRPMI which, after passive penetration into cells, is hydrolyzed into nonfluorescent polar DCFH and trapped inside the cells. DCFH is then oxidized into highly fluorescent DCF according to the intracellular amount of hydrogen peroxide (H2O2) produced by the respiratory burst. After three washings with phosphate-buffered saline (PBS, pH 7.4), cells were lysed in 0.1% v/v Triton X100 (Sigma) in PBS, and fluorescence was quantified in a computerized microplate spectrofluorimeter (Packard Instruments, Downers Grove, Ill., USA) at 485 nm excitation/530 nm emission wavelengths. DCF concentrations were deduced from a standard curve of known concentrations of fluorescent DCF (ranging from 0.08 to 10 μM in lysis buffer) Results were corrected for total protein concentration determined in cell lysates by the bicinchoninic acid-based method (Pierce, Rockford, Ill., USA), and were expressed as nmoles DCF/mg cell protein."}, "PMA-stimulated PBM": {"tested_on": "PMA-stimulated PBM", "assay": "Extracellular O2- release, SOD-inhibitable reduction of ferricytochrome c", "type": "cell-based, human", "settings": "PMA as stimulus, preliminary experiments", "procedure": "Extracellular release of O2-derived radicals was evaluated by the SOD-inhibitable reduction of ferricytochrome c, as previously described (Pick, Methods in Enzymology, 132:407-421 (1986)) as described infra.\nExtracellular release of O2-derived radicals was evaluated by the SOD-inhibitable reduction of ferricytochrome c, as previously described (Pick, Methods in Enzymology, 132:407-421 (1986)). Briefly, after incubation with IL-9 and IL-4 (20 ng/ml) for 1 hour, 4 hour 24 hour and 96 hour, cells were washed three times in Hank's balanced salt solution without phenol red (HBSS) to remove the phenol red-containing medium and incubated at 37° C. with HBSS containing 160 μM ferricytochrome c (plus 300 IU/ml SOD as control for each condition), and concomittantly with 100 ng/ml PMA when indicated. Optical density (OD) at 550 nm was then recorded in a plate spectrometer (Titertek Multiscan Plus MKII, Labsystems, Finland) after 60 min. The released amount of superoxide anion (O2^−) was deduced from the absorbance values at 550 nm (after subtraction of control values with SOD) using the cytochrome c extinction coefficient of 21×10^3 M^−1 cm^−1 (See Massey, Biochim Biophys Acta, 34: 255(1959)). Results were expressed as nmoles O2^− per 10^6 cells per hour (FIG. 1)."}, "LPS-stimulated PBM [2]": {"tested_on": "LPS-stimulated PBM", "assay": "Intracellular oxidative burst, DCFH oxidation assay, PBM", "type": "cell-based, human", "settings": "PMA as stimulus, preliminary experiments"}, "surface of PBM and AM": {"tested_on": "surface of PBM and AM", "assay": "IL-9 binding assay with hIL-9-mIgG3 chimeric molecule by FACS", "set-up": "species or system human", "settings": "revealed by GAM3-FITC, compared with control", "procedure": "To assess the IL-9 binding by PBM and AM, cells (0.2×10^6) were incubated with hIL-9-nIlgG3 chimeric protein and binding was assayed with GAM3-FITC. FIG. 4 is representative of five and three experiments for respectively IL-9R expression and IL-9 binding.\nBinding of IL-9 to the surface of PBM and AM was assessed by incubating these cells (0.2×10^6) at 4° C. for 1 hour with hIL-9-mIgG3 chimeric molecule (10% COS cell supernatant). […] Cells incubated with mIgG3 before GAM3-FITC served as the negative control. FACS analysis of the cell-associated fluorescence was then performed as for the assessment of IL-9R expression.\nBinding of IL-9 to the surface of PBM and AM was assessed by incubating these cells (0.2×10^6) at 4° C. for 1 hour with hIL-9-mIgG3 chimeric molecule (10%, v/v, COS cell supernatant). […] Cells incubated with mIgG3 before GAM3-FITC or only with GAM3-FITC served as negative controls. FACS analysis of the cell-associated fluorescence was then performed as for the assessment of IL-9R expression."}, "ERK½": {"tested_on": "ERK½", "assay": "ERK½ MAP kinase phosphorylation immunoblot in PBM", "type": "cell-based, human", "settings": "pretreatment before LPS 1 μg/ml; IL-9 20 ng/ml 24 hour; PD98059 1 hour", "procedure": "PBM, isolated as described infra, were treated with 100 !M PD98059 (or with the same volume of DMSO as control) 1 hour before preincubation for 24 hour with medium or IL-9 (20 ng/ml). For the phosphoERK immunoblot assay (A), PBM were then stimulated by LPS (1 μg/ml) for the indicated periods of time (5 min to 20 hours) as compared to unstimulated cells (med), and processed for the detection of phosphorylated and total ERK½ as described in infra. For the oxidative burst (B), PBM were stimulated by LPS (1 μg/ml) for 20 hour and their oxidative capacity was evaluated through DCFH oxidation The results are presented in FIG. 7.\nPBM were preincubated for 24 hour with medium alone (med) or IL-9, IL-4 or TGF-β1 (20 ng/ml), and stimulated by LPS (1 μg/ml) for the indicated periods of time (30 to 240 min). […]\nPBM (1×10^6) were preincubated for 24 hour with medium alone or with cytokines (IL-9, IL-4 or TGF-β1 at 20 ng/ml) and stimulated from 5 min to 20 hour by 1 μg/ml LPS. […] Cell extracts (10 μg, as determined by the bicinchoninic acid-based assay) were subjected to SDS-12%PAGE, and electrotransferred onto a nitrocellulose membrane (Amersham) immunoblotted to detect and compare phosphorylated (threonine^202/tyrosine^204 residues) and total ERK½, using specific antibodies and enhanced chemiluminescence (New England Biolabs). […]"}}}
{"compound": "TGF-β1: monocyte/macrophage deactivating factor, 20 ng/ml", "values": [{"measurement": "Oxidative burst (nmoles DCF/mg protein)", "setting": "LPS-stimulated PBM [1]; Table 3, PBM, mAb 30 μg/ml 2 hour before IL-9 20 ng/ml 24 hour, LPS 1 μg/ml 20 h, means±SD, Medium 10.3 ± 0.2", "value": "10.2 ± 0.5", "unit": "nmoles DCF/mg protein"}, {"measurement": "LPS-stimulated oxidative burst in PBM", "setting": "LPS-stimulated PBM [1]; preincubation 24 hour with cytokine 20 ng/ml, then LPS 1 μg/ml 20 hour, without IFN-γ", "value": "10.2±0.5", "unit": "nmoles DCF/mg protein"}]}
{"compound": "CCCCCCCCCCCCCC(=O)O[C@@H]1[C@@H](C)[C@@]2(O)[C@@H](C=C(CO)C[C@]3(O)C(=O)C(C)=C[C@@H]23)[C@@H]2C(C)(C)[C@]12OC(C)=O", "note": "[PMA, phorbol myristate acetate, reference compound]", "values": [{"measurement": "cytochrome c reduction by PBM", "setting": "PMA-stimulated PBM", "value": "strongly stimulated"}, {"measurement": "DCFH oxidation by PBM", "setting": "LPS-stimulated PBM [2]", "value": "only a minor effect"}]}
{"compound": "IL-9-mIgG3: human IL-9 fused to hinge, CH2 and CH3 domains of murine IgG3 heavy chain, COS cell supernatant", "values": [{"measurement": "binding of IL-9 on the surface of AM", "setting": "surface of PBM and AM", "value": "significant binding"}, {"measurement": "binding of IL-9 on the surface of PBM", "setting": "surface of PBM and AM", "value": "significant binding"}]}
{"compound": "COc1cccc(-c2cc(=O)c3ccccc3o2)c1N", "note": "[PD98059, reference compound]", "values": [{"measurement": "effect on LPS-stimulated ROI production (oxidative burst) in monocytes", "setting": "LPS-stimulated PBM [1]; PD98059 1 hour before preincubation, LPS 20 hour, DCFH oxidation", "value": "completely suppressed"}, {"measurement": "LPS-induced ERK½ phosphorylation in PBM", "setting": "ERK½", "value": "prevented"}]}
